# Assay results taken from patent US11919902B2, “Aryl-bipyridine amine derivatives as phosphatidylinositol phosphate kinase inhibitors” (HiberCell, Inc., priority 2017, dated 2024).
# Assays:
# GST tagged PIP4KtypeIIB = target: T1, GST tagged PIP4KtypeIIB (Homo sapiens, UniProt P78356); assay: Trans-FI P kinase assay PIP4K2B (PIP4KtypeIIB inhibition assay); format: biochemical; settings: Table 4; compounds listed under IC50 range headings; 100 uM GTP, 5 nM PIP4KIIB; read-out: Trans-FI P kinase assays: PIP4K2B IC50
# T1 construct: made in house; host or cells: E. coli
# T1 sequence (P78356 1-416): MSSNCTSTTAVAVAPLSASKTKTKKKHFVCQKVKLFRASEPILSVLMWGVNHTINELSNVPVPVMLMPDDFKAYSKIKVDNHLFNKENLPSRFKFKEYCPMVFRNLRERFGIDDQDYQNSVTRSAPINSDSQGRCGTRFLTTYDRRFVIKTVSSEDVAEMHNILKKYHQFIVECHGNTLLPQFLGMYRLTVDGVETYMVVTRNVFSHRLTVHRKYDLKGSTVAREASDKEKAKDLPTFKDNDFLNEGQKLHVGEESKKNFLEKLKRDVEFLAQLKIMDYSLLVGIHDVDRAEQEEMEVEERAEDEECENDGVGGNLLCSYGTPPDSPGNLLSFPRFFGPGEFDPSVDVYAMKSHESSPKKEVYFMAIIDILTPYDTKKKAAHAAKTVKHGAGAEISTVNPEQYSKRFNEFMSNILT
# Description: GST tagged PIP4KtypeIIA and B enzymes were overexpressed in E. Coli and purified to >80% homogeneity. Phosphatidyl inositol-5-phosphate (PI5P, Cat. #850152, Avanti Polar Lipids Inc.) was used as the lipid substrate and phosphatidyl ethanolamine (DOPE 18:1, Cat. #850725, Avanti Polar Lipids Inc.) was used as the carrier lipid for assays. Ultrapure ATP and GTP was purchased from Bellbrooke Labs. ADP Glo reagents were obtained from Promega. Transcreener FI reagent was obtained from Bellbrooke labs.
# 1. HEPES buffer mix: 200 mM HEPES pH 7.4, 50 mM MgCl2, 0.05% v/v triton×100
# 2. HNE buffer: 20 mM HEPES, pH 7.4, 100 mM NaCl, 0.5 mM EGTA
# 3. H:E buffer: 30 mM HEPES, pH 7.4, 1 mM EGTA
# GST-tagged PIP4KtypeIIB (3.4 uL, 2.77 mg/mL) was diluted to 5 mL using HNE buffer to yield 5× enzyme stock (25 nM)
# Lipid Preparation: In a 10 mL pyrex glass vial, lug of PI5P and lug of DOPE were suspended in 2.5 mL of HEPES buffer mix and 2.5 mL of H:E buffer. The contents were mixed and sonicated for 3 min to yield a translucent lipid stock.
# Compound Preparation: Compounds were stored as 5 mM stocks in neat DMSO as room temperature in glass vials. 5 mM stocks were diluted to 2 mM and then serially diluted (3×) in neat DMSO in 96 well polypropylene plates. From the serially diluted stocks, 3 uL was delivered into 250 uL of 25% DMSO (in water) to generate 5× compound stocks. Typically, the highest compound conc. was 24 uM.
# The assay volume was kept at 25 uL. To each well of the reaction plate, 10 uL of lipid stock (1:1 ratio PI5P:DOPE) was delivered. This was followed by the addition of 5 uL of compound in 25% DMSO. Then, to each well, 5 uL of 25 nM (5×) typeIIB enzyme was delivered. The contents were mixed well and incubated for 1 h at 27 C. After 1 h, reaction was initiated by adding 5 uL of 500 uM GTP and the contents were mixed well with a multi-channel pipetteman. The final concentration of the reagents are as follows: 50 mM HEPES, pH 7.3, 10 mM MgCl2, 20 mM NaCl, 0.01% v/v triton-X100, 5% DMSO, 100 uM GTP, 80 uM (2 ug) PI5P, 2 ug DOPE, and 5 nM PIP4KIIB Typically, the highest conc. of compounds was 4.8 uM and the lowest conc. was 0.
# After 2 h, the reaction was quenched by adding 25 uL of transcreener FI reagent. The contents were incubated at RT for 1 h and the Fluorescence (Ex: 584 Em: 623) was read using Molecular Devices Paradigm plate reader. […] The blanks were averaged and subtracted from all other wells. Using a calibration curve, RFU was converted to uM GDP (product). IC50 was calculated by plotting the residual activity (expressed as % No inhibitor control) vs. log [Inh. conc.] Table 2 represents PI5P4K activity of compounds (Example No.) of the invention arranged in accordance with the inhibition of PIP4K2 A kinase assay.
# [1] = target: T2, PIP4K2A (full length protein, SignalChem) (Homo sapiens, UniProt P48426); assay: Kinase Assay PIP4K2 A (Sprint); ADP-Glo biochemical assay; settings: Table 2; compounds listed under IC50 range headings
# T2 construct: 4 nM PIP4K2A (full length protein, SignalChem); purchased SignalChem
# T2 sequence (P48426 1-406): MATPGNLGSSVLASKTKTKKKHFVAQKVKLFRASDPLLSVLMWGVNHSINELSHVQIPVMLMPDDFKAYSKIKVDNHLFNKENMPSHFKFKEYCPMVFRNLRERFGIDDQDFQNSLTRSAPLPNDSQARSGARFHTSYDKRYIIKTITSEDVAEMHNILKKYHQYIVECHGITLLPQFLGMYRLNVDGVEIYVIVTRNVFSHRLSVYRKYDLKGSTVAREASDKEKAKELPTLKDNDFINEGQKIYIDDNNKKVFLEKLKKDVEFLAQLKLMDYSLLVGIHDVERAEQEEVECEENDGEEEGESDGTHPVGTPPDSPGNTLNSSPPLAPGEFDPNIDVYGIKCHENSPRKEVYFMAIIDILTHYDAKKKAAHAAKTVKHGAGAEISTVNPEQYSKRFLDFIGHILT
# Outline: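 ADP-Glo luminescence detected ADP after a 1 h RT reaction started with 60 μM ATP solution. Before that, full-length PIP4K2A (4 nM in mix) with 100 μM PI(5)P diC8 was pre-incubated 15 min with compounds in MOPS buffer pH 7.2, 25 mM MgCl2, 0.005% Tween 20. IC50 derived from % inhibition relative to DMSO over 10 three-fold concentrations.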
SMILES,IC50 (GST tagged PIP4KtypeIIB) [nM],IC50 [1] [nM]
"CCn1cnnc1-c1ccc(-c2cncc(-c3ccnc4c3cc3n4CCN(C)C3=O)c2)cc1 [Example 358, 4-(5-(4-(4-ethyl-4H-1,2,4-triazol-3-yl)phenyl)pyridin-3-yl)-7-methyl-8,9-dihydropyrido[3′,2′:4,5]pyrrolo[1,2-a]pyrazin-6(7H)-one]",1 to 10,100 to 1000
"CN(C(=O)c1cc2c(-c3cncc(-c4ccc(N5CCCC5=O)cc4)c3)ccnc2[nH]1)c1cccnc1 [Example 310, N-methyl-4-(5-(4-(2-oxopyrrolidin-1-yl)phenyl)pyridin-3-yl)-N-(pyridin-3-yl)-1H-pyrrolo[2,3-b]pyridine-2-carboxamide]",100 to 1000,100 to 1000
"Cn1c(CNC(=O)c2cc3c(-c4cncc(-c5ccc(N6CCCC6=O)cc5)c4)ccnc3[nH]2)nc2ccccc21 [Example 321, N-((1-methyl-1H-benzo[d]imidazol-2-yl)methyl)-4-(5-(4-(2-oxopyrrolidin-1-yl)phenyl)pyridin-3-yl)-1H-pyrrolo[2,3-b]pyridine-2-carboxamide]",100 to 1000,< 5000
"O=C(COc1cccc2c1C(=O)N(C1CCC(=O)NC1=O)C2=O)NCCOCCOCCOCCNC(=O)c1cc2c(-c3cncc(-c4ccc(N5CCCC5=O)cc4)c3)ccnc2[nH]1 (stereo not shown) [Example 393, N-(1-((2-(2,6-dioxopiperidin-3-yl)-1,3-dioxoisoindolin-4-yl)oxy)-2-oxo-6,9,12-trioxa-3-azatetradecan-14-yl)-4-(5-(4-(2-oxopyrrolidin-1-yl)phenyl)pyridin-3-yl)-1H-pyrrolo[2,3-b]pyridine-2-carboxamide]",100 to 1000,1000 to 2500
"O=C(c1cc2c(-c3cncc(-c4ccc(N5CCCC5=O)cc4)c3)ccnc2[nH]1)N1CCCC(O)(C2CC2)C1 (stereo not shown) [Example 210, 1-(4-(5-(2-(3-cyclopropyl-3-hydroxypiperidine-1-carbonyl)-1H-pyrrolo[2,3-b]pyridin-4-yl)pyridin-3-yl)phenyl)pyrrolidin-2-one]",100 to 1000,100 to 1000
"CC(C)c1cnnn1-c1ccc(-c2cncc(-c3ccnc4c3cc3n4CCN(C)C3=O)c2)cc1 [Example 368, 4-(5-(4-(5-isopropyl-1H-1,2,3-triazol-1-yl)phenyl)pyridin-3-yl)-7-methyl-8,9-dihydropyrido[3′,2′:4,5]pyrrolo[1,2-a]pyrazin-6(7H)-one]",1 to 10,5 to 100
"Cc1[nH]nc2nccc(-c3cncc(-c4ccc(N5CCCC5=O)cc4)c3)c12 [Example 318, 1-(4-(5-(3-methyl-2H-pyrazolo[3,4-b]pyridin-4-yl)pyridin-3-yl)phenyl)pyrrolidin-2-one]",100 to 1000,1000 to 2500
"CN1CCn2c(cc3c(-c4cncc(-c5ccc(C(=O)N6CCOCC6)cc5)c4)ccnc32)C1=O [Example 327, 7-methyl-4-(5-(4-(morpholine-4-carbonyl)phenyl)pyridin-3-yl)-8,9-dihydropyrido[3′,2′:4,5]pyrrolo[1,2-a]pyrazin-6(7H)-one]",100 to 1000,2500 to 5000
"CC(C)n1cnnc1-c1ccc(-c2cncc(-c3ccnc4[nH]c(C(=O)NCCOCCOCCOCCNC(=O)COc5cccc6c5C(=O)N(C5CCC(=O)NC5=O)C6=O)cc34)c2)cc1 (stereo not shown) [Example 389, N-(1-((2-(2,6-dioxopiperidin-3-yl)-1,3-dioxoisoindolin-4-yl)oxy)-2-oxo-6,9,12-trioxa-3-azatetradecan-14-yl)-4-(5-(4-(4-isopropyl-4H-1,2,4-triazol-3-yl)phenyl)pyridin-3-yl)-1H-pyrrolo[2,3-b]pyridine-2-carboxamide]",100 to 1000,< 5000
"Cc1cc(-c2cncc(-c3ccc(N4CCCC4=O)cc3)c2)n2cnnc2n1 [Example 336, 1-(4-(5-(7-methyl-[1,2,4]triazolo[4,3-a]pyrimidin-5-yl)pyridin-3-yl)phenyl)pyrrolidin-2-one]",> 5000,< 5000
"CC(C)Cn1cnnc1-c1ccc(-c2cncc(-c3ccnc4[nH]c(C(=O)NCc5ccccc5)cc34)c2)cc1 [Example 372, N-benzyl-4-(5-(4-(4-isobutyl-4H-1,2,4-triazol-3-yl)phenyl)pyridin-3-yl)-1H-pyrrolo[2,3-b]pyridine-2-carboxamide]",10 to 100,1000 to 2500

# Next, values leading:
IC50 (GST tagged PIP4KtypeIIB) [nM],IC50 [1] [nM],SMILES
100 to 1000,100 to 1000,"CN1CCn2c(cc3c(-c4cncc(-c5ccc(C(=O)N6CCCC6)cc5)c4)ccnc32)C1=O [Example 349, 7-methyl-4-(5-(4-(pyrrolidine-1-carbonyl)phenyl)pyridin-3-yl)-8,9-dihydropyrido[3′,2′:4,5]pyrrolo[1,2-a]pyrazin-6(7H)-one]"
100 to 1000,1000 to 2500,"Cc1cc2nc(CNC(=O)c3cc4c(-c5cncc(-c6ccc(N7CCCC7=O)cc6)c5)ccnc4[nH]3)[nH]c2cc1C [Example 315, N-((5,6-dimethyl-1H-benzo[d]imidazol-2-yl)methyl)-4-(5-(4-(2-oxopyrrolidin-1-yl)phenyl)pyridin-3-yl)-1H-pyrrolo[2,3-b]pyridine-2-carboxamide]"
10 to 100,1000 to 2500,"CC(C)Cn1cnnc1-c1ccc(-c2cncc(-c3ccnc4[nH]c(C(=O)NCCc5ccncc5)cc34)c2)cc1 [Example 396, 4-(5-(4-(4-isobutyl-4H-1,2,4-triazol-3-yl)phenyl)pyridin-3-yl)-N-(2-(pyridin-4-yl)ethyl)-1H-pyrrolo[2,3-b]pyridine-2-carboxamide]"
1 to 10,5 to 100,"COC(=O)c1cc2c(-c3cncc(-c4ccc(-c5nncn5C(C)C)cc4)c3)ccnc2[nH]1 [Example 211, methyl 4-(5-(4-(4-isopropyl-4H-1,2,4-triazol-3-yl)phenyl)pyridin-3-yl)-1H-pyrrolo[2,3-b]pyridine-2-carboxylate]"
1 to 10,5 to 100,"CC(C)c1cnnn1-c1ccc(-c2cncc(-c3ccnc4c3cc3n4CCN(c4ccccn4)C3=O)c2)cc1 [Example 357, 4-(5-(4-(5-isopropyl-1H-1,2,3-triazol-1-yl)phenyl)pyridin-3-yl)-7-(pyridin-2-yl)-8,9-dihydropyrido[3′,2′:4,5]pyrrolo[1,2-a]pyrazin-6(7H)-one]"
100 to 1000,100 to 1000,"O=C1CCCN1c1ccc(-c2cncc(-c3cc(C4CC4)nc4nncn34)c2)cc1 [Example 333, 1-(4-(5-(7-cyclopropyl-[1,2,4]triazolo[4,3-a]pyrimidin-5-yl)pyridin-3-yl)phenyl)pyrrolidin-2-one]"
